Experimental data published in US9580707B2, “Peptide antimicrobials” (Wayne State University, priority 2010, dated 2017).

Each substance was assayed on E. coli DH5α (assay: Induced growth curves of E. coli expressing peptide-PhoA fusions in the periplasm (periplasmic in vivo display)). Details: peptide expressed as PhoA fusion in the periplasm, arabinose induction, OD600.
Assay type: cell-based
Procedure: Numerous periplasmic screens have been performed for the identification of bacteriolytic peptides, encompassing more than 90 million clones. Selected clones have been sequenced and confirmed by induced growth curves, confirming that the disclosed bacteriolytic screen enriches plasmid preparations for peptides that elicit cell lysis. For example, an isolated clone is grown in fresh LB medium to early log phase. Arabinose is added to induced peptide-PhoA fusion expression, and the peptide's effect on growth is observed by measuring the cell density of the culture. Many clones of differing growth phenotypes were analyzed. Bacteriolytic peptides have predominated the extracted clones, which is to be expected given that the bacteriolytic screen was used. Peptides were recovered that had either a bacteriostatic or bactericidal effect and others that have a weakly inhibitory effect as they reduce the rate of E. coli's growth […] and may find use as precursors to actual peptide hits.
Phenotype definitions: Bacteriolytic: OD600 of culture decreases in value, correlating with a reduction in the concentration of cells. Bactriostatic/bactericidal: OD600 of culture flatlines, correlating with a complete stop in the growth of the cells and constant cell density. Weakly inhibitory OD600<0.7: Replication is slowed but not stopped. Final OD600 as culture enters stationary phase is less than 0.7. Weakly inhibitory OD600>0.7: Similar to the above, only final OD600 exceeds 0.7. Peptides have only a minor effect on growth. Non-inhibitory: No growth effect was observed versus the expression of PhoA with no peptide at its N-terminus.
After replica plating, clones were grown in LB+30 μg/ml kanamycin. When OD600˜0.15, arabinose was added to a final concentration of 0.2%. The OD600 of the culture was then measured every 30 minutes to see the effect of peptide-PhoA fusion expression on the cell. […]
With “EOD037 Pro+: EOD037 in which an alanine was replaced with a proline (IRWLPRRWRRTF; Antimicrobial peptide EOD037Pro+)” the “antimicrobial activity / growth phenotype after induction” value was “loss of antimicrobial activity”.
In the case of “EOD037: inhibitory peptide from the early onset degenerate peptide library (IRWLARRWRRTF; Antimicrobial peptide EOD037)”, the “antimicrobial activity / growth phenotype after induction” value is reported as “inhibitory”.
For “EOD084: non-inhibitory, proline-containing peptide from the early onset degenerate peptide library (FMRLPRWWRRMQ; Antimicrobial peptide EOD084)”, the “antimicrobial activity / growth phenotype after induction” value was “non-inhibitory”.
